Assays:
[1] = tested on: HCT-116 cancer cells; experiment: MTT cytotoxicity assay, HCT-116; type: cell-based; details: Homo sapiens, HCT-116, 48 h, read-out: IC50 ± SD
[2] = tested on: WI-38 cells; experiment: MTT cytotoxicity assay, normal WI-38; type: cell-based; details: Homo sapiens, WI-38, 48 h, read-out: IC50 ± SD
[3] = target: EGFR (Homo sapiens, UniProt P00533); experiment: EGFR kinase inhibitory assay; type: biochemical; details: for IC50: EGFR IC50 ± SD
[4] = tested on: P53, Bax, caspase-3, caspase-8, caspase-9, Bcl-2 genes in HCT-116 cells; experiment: RT-PCR gene expression of apoptosis-related genes; type: cell-based; details: HCT-116, IC50 = 1.34 μM, 48 h
[5] = tested on: HCT-116 cells; experiment: DNA-content cell cycle analysis by flow cytometry; type: cell-based; details: HCT-116, IC50 = 1.34 μM, 48 h; control 54.19%
[6] = tested on: HCT-116 cells; experiment: Annexin V/PI staining flow cytometry; type: cell-based
[7] = three replicates, concentrations 0.001-10 μM

EGFR, sequence (P00533 25-1210): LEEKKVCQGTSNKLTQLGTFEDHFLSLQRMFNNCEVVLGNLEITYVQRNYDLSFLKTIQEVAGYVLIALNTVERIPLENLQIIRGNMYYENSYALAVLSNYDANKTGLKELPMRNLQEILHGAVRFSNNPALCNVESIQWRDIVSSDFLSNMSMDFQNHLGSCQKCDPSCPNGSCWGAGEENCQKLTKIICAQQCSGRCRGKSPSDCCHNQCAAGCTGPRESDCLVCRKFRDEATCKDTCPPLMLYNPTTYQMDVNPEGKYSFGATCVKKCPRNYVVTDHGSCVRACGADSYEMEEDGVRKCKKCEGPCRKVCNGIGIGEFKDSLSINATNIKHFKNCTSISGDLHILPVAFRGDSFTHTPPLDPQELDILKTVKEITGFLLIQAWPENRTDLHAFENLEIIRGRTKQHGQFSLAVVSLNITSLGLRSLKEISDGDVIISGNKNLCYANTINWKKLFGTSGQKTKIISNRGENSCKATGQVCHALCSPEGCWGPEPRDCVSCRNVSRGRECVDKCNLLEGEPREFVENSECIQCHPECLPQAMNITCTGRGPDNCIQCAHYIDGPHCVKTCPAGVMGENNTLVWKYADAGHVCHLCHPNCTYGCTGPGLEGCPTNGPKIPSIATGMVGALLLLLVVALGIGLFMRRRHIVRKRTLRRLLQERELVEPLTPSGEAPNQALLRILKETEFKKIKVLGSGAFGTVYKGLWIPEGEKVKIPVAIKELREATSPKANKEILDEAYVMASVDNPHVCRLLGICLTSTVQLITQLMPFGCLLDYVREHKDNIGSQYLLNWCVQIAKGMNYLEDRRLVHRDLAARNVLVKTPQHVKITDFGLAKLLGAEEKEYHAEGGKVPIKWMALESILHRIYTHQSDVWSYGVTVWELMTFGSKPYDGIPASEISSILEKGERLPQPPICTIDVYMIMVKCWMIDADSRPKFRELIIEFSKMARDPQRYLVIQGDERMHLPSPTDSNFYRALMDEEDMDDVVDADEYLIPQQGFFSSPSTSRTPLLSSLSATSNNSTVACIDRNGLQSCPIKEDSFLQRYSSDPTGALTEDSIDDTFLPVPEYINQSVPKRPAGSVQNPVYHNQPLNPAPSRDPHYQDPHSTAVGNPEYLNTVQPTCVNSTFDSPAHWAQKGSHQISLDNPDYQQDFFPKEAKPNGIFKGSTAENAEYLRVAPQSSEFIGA

CC1=C(C(=O)Nc2ccccc2)C(c2ccc3ccc4cccc5ccc2c3c45)NC(=S)N1 (stereo not drawn) [Compound 4a, 6-Methyl-N-phenyl-4-(pyren-1-yl)-2-thioxo-1,2,3,4-tetrahydropyrimidine-5-carboxamide]
IC50 [1]: 4800 nM | IC50 [2]: ≥ 50000 nM | IC50 [3, 7]: 104 ± 5.67 nM | EGFR inhibition percentage ([3]; concentration not given): 82.3%

CC1=C(C(=O)Nc2cccnc2)C(c2ccc3ccc4cccc5ccc2c3c45)NC(=S)N1 (stereo not drawn) [Compound 4c, 6-Methyl-4-(pyren-1-yl)-N-(pyridin-3-yl)-2-thioxo-1,2,3,4-tetrahydropyrimidine-5-carboxamide]
IC50 [1]: 1900 ± 300 nM | IC50 [2]: ≥ 50000 nM | IC50 [3, 7]: 94.9 ± 4.95 nM

CC1=C(C(=O)Nc2ccccn2)C(c2ccc3ccc4cccc5ccc2c3c45)NC(=S)N1 (stereo not drawn) [Compound 4b, 6-Methyl-4-(pyren-1-yl)-N-(pyridin-2-yl)-2-thioxo-1,2,3,4-tetrahydropyrimidine-5-carboxamide]
Bax gene expression fold change [4]: 3.54 fold change | P53 gene expression fold change [4]: 6.85 fold change | caspase-3 gene expression fold change [4]: 8.37 fold change | caspase-8 gene expression fold change [4]: 2.3 fold change | caspase-9 gene expression fold change [4]: 6.80 fold change | Bcl-2 gene expression fold change ([4]; antiapoptotic gene, decreased): 0.37 fold change | cell population at G1-phase (%DIP G1) [5]: 87.55% | IC50 [1]: 1340 ± 400 nM | IC50 [2]: ≥ 50000 nM | apoptosis induction versus control ([6]; HCT-116): 30.2 fold | necrosis ([6]; HCT-116, IC50 = 1.34 μM, 48 h, Q1, control 2.13%): 5.58% | late apoptosis ([6]; HCT-116, IC50 = 1.34 μM, 48 h, Q2): 7.36% | early apoptosis ([6]; HCT-116, IC50 = 1.34 μM, 48 h, Q4): 19.24% | cells that died by apoptosis (total) ([6]; HCT-116, treated at IC50 = 1.34 μM, 48 h, control 0.88%): 26.60% | IC50 [3, 7]: 77 ± 4.36 nM

C#Cc1cccc(Nc2ncnc3cc(OCCOC)c(OCCOC)cc23)c1 [Erlotinib, reference compound]
IC50 [1]: 1320 ± 200 nM | IC50 [2]: ≥ 50000 nM

Cc1[nH]c(=O)nc2c1c(=O)oc1ccc3ccccc3c12 [Compound 16, 4-Methyl-2H-benzo[5,6]chromeno[4,3-d]pyrimidine-2,5(3H)-dione]
IC50 [1]: 6460 nM | IC50 [2]: ≥ 50000 nM | EGFR IC50 ± SD [3, 7]: non-detected
